Measurements published in PubChem BioAssay AID340 (DTP/NCI, 2004).
“And” between values parts separate entries of the source, which are not always exact repeats. Equal entries are not always repeated. Toxic doses and inconclusive results are not listed.

Test system: CD2F1 mice, ip reticulum cell sarcoma, survival T/C
Test: NCI In Vivo Anticancer Drug Screen. Data for tumor model Reticulum Cell Sarcoma (Kelley Mouse) (intraperitoneal) in CD2F1 (CDF1) mice
Details: endpoint: median survival time, higher = longer survival
Experimental: The antitumor activity of compounds was measured in mice bearing transplantable tumors. Survival or tumor size were measured and the results are expressed as the measurement made in the treated group (T) divided by the measurement made in the vehicle treated control group (C). The tumor model used in this assay is Reticulum Cell Sarcoma (Kelley Mouse) (intraperitoneal) in CD2F1 (CDF1) mice

[1] = dose: 8.0 mg/kg/injection, schedule: Q01DX010 (ip), vehicle: saline
[2] = dose: 62.5 mg/kg/injection, schedule: Q01DX010 (ip), vehicle: saline
[3] = dose: 125.0 mg/kg/injection, schedule: Q01DX010 (ip), vehicle: saline
[4] = dose: 12.5 mg/kg/injection, schedule: Q01DX010 (ip), vehicle: saline
[5] = dose: 1.0 mg/kg/injection, schedule: Q01DX010 (ip), vehicle: saline
[6] = dose: 2.0 mg/kg/injection, schedule: Q01DX010 (ip), vehicle: saline
[7] = dose: 250.0 micrograms/kg/injection, schedule: Q01DX010 (ip), vehicle: saline
[8] = dose: 500.0 micrograms/kg/injection, schedule: Q01DX010 (ip), vehicle: saline
[9] = dose: 50.0 mg/kg/injection, schedule: Q01DX010 (ip), vehicle: saline
[10] = dose: 100.0 mg/kg/injection, schedule: Q01DX010 (ip), vehicle: saline

Compound: O=C(Nc1ccc(C2=NCCN2)cc1)c1cccc(C(=O)Nc2ccc(C3=NCCN3)cc2)c1
- T/C [1]: 121 % of control
- T/C (dose: 16.0 mg/kg/injection, schedule: Q01DX010 (ip), vehicle: saline): 121 % of control
- T/C (dose: 32.0 mg/kg/injection, schedule: Q01DX010 (ip), vehicle: saline): 157 % of control
- T/C (dose: 64.0 mg/kg/injection, schedule: Q01DX010 (ip), vehicle: saline): 186 % of control and 210 % of control

Compound: CC(=O)N(C)C
- T/C [2]: 100 % of control and 107 % of control
- T/C [3]: 95 % of control and 102 % of control
- T/C (dose: 250.0 mg/kg/injection, schedule: Q01DX010 (ip), vehicle: saline): 97 % of control and 105 % of control
- T/C (dose: 500.0 mg/kg/injection, schedule: Q01DX010 (ip), vehicle: saline): 90 % of control and 100 % of control

Compound: O=C(O)CCCc1ccc(N(CCCl)CCCl)cc1
- T/C (dose: 6.25 mg/kg/injection, schedule: Q01DX010 (ip), vehicle: saline): 103 % of control
- T/C [4]: 106 % of control

Compound: O=C(Nc1ccc(C2=NCCN2)cc1)c1ccc(C(=O)Nc2ccc(C3=NCCN3)cc2)c([N+](=O)[O-])c1
- T/C (dose: 6.0 mg/kg/injection, schedule: Q01DX010 (ip), vehicle: saline): 168 % of control
- T/C [1]: 255 % of control and 297 % of control
- T/C (dose: 12.0 mg/kg/injection, schedule: Q01DX010 (ip), vehicle: saline): 281 % of control and 300 % of control

Compound: CS(=O)(=O)OCCN(CCOS(C)(=O)=O)c1ccc(N=O)cc1
- T/C [5]: 103 % of control and 110 % of control
- T/C [6]: 96 % of control
- T/C (dose: 62.5 micrograms/kg/injection, schedule: Q01DX010 (ip), vehicle: saline): 116 % of control
- T/C [7]: 166 % of control
- T/C [8]: 175 % of control

Compound: S=P(N1CCOCC1)(N1CC1)N1CC1
- T/C (dose: 2.5 mg/kg/injection, schedule: Q01DX010 (ip), vehicle: saline): 100 % of control and 103 % of control
- T/C (dose: 5.0 mg/kg/injection, schedule: Q01DX010 (ip), vehicle: saline): 100 % of control and 106 % of control
- T/C (dose: 10.0 mg/kg/injection, schedule: Q01DX010 (ip), vehicle: saline): 100 % of control and 106 % of control

Compound: N#CCSc1ncnc2nc[nH]c12
- T/C (dose: 7.5 mg/kg/injection, schedule: Q01DX010 (ip), vehicle: saline): 100 % of control
- T/C (dose: 15.0 mg/kg/injection, schedule: Q01DX010 (ip), vehicle: saline): 103 % of control
- T/C (dose: 30.0 mg/kg/injection, schedule: Q01DX010 (ip), vehicle: saline): 100 % of control and 103 % of control
- T/C (dose: 60.0 mg/kg/injection, schedule: Q01DX010 (ip), vehicle: saline): 103 % of control and 106 % of control

Compound: CN(C)c1nc(N(C)C)nc(N(C)C)n1
- T/C (dose: 18.8 mg/kg/injection, schedule: Q01DX010 (ip), vehicle: saline): 100 % of control and 103 % of control
- T/C (dose: 37.5 mg/kg/injection, schedule: Q01DX010 (ip), vehicle: saline): 93 % of control and 106 % of control
- T/C (dose: 75.0 mg/kg/injection, schedule: Q01DX010 (ip), vehicle: saline): 100 % of control and 109 % of control
- T/C (dose: 150.0 mg/kg/injection, schedule: Q01DX010 (ip), vehicle: saline): 100 % of control and 106 % of control

Compound: COc1cc(-c2ccc(Nc3ccccc3C(=O)O)c(OC)c2)ccc1Nc1ccccc1C(=O)O
- T/C [9]: 105 % of control
- T/C [10]: 100 % of control

Compound: Nc1nc(=S)c2ncn(C3OC(CO)C(O)C3O)c2[nH]1 (centres undefined)
- T/C [5]: 178 % of control
- T/C [6]: 182 % of control
- T/C (dose: 4.0 mg/kg/injection, schedule: Q01DX010 (ip), vehicle: saline): 103 % of control

Compound: COC(=O)[C@@H]1c2cc3c(c(O)c2[C@@H](OC2OC(C)C(OC)C(C)(OC)C2OC)C[C@]1(C)O)C(=O)c1c(O)cc2c(c1C3=O)O[C@H]1O[C@]2(C)[C@H](O)[C@@H](N(C)C)[C@@H]1O (some centres undefined)
- T/C (dose: 63.0 micrograms/kg/injection, schedule: Q01DX010 (ip), vehicle: saline): 103 % of control
- T/C (dose: 125.0 micrograms/kg/injection, schedule: Q01DX010 (ip), vehicle: saline): 103 % of control and 105 % of control
- T/C [7]: 103 % of control and 105 % of control
- T/C [8]: 100 % of control
- T/C (dose: 1000.0 micrograms/kg/injection, schedule: Q01DX010 (ip), vehicle: saline): 94 % of control

Compound: O=C(Nc1ccc(C2=NCCN2)cc1)c1ccc(C(=O)Nc2ccc(C3=NCCN3)cc2)c(Cl)c1
- T/C (dose: 2.0 mg/kg/injection, schedule: Q01DX010 (ip), vehicle: other): 111 % of control and 115 % of control
- T/C (dose: 4.0 mg/kg/injection, schedule: Q01DX010 (ip), vehicle: other): 113 % of control
- T/C (dose: 8.0 mg/kg/injection, schedule: Q01DX010 (ip), vehicle: other): 168 % of control
- T/C (dose: 16.0 mg/kg/injection, schedule: Q01DX010 (ip), vehicle: other): 151 % of control and 197 % of control
- T/C (dose: 32.0 mg/kg/injection, schedule: Q01DX010 (ip), vehicle: other): 95 % of control

Compound: CS(=O)(=O)OCCC(=O)N1CCN(C(=O)CCOS(C)(=O)=O)CC1
- T/C [4]: 111 % of control and 114 % of control
- T/C [9]: 114 % of control
- T/C [10]: 114 % of control

Compound: CCCCNc1ncnc2c1cnn2C
- T/C (dose: 31.3 mg/kg/injection, schedule: Q01DX010 (ip), vehicle: saline): 95 % of control and 100 % of control
- T/C [2]: 94 % of control and 102 % of control
- T/C [3]: 90 % of control and 100 % of control

Compound: C[C@]12C=CC(=O)C=C1CC[C@@H]1[C@@H]2[C@@H](O)C[C@@]2(C)[C@H]1CC[C@]2(O)C(=O)CO
- T/C (dose: 12.5 mg/kg/injection, schedule: Q01DX010 (sc), vehicle: steriod suspending solution): 97 % of control and 100 % of control
- T/C (dose: 25.0 mg/kg/injection, schedule: Q01DX010 (sc), vehicle: steriod suspending solution): 94 % of control and 100 % of control
- T/C (dose: 50.0 mg/kg/injection, schedule: Q01DX010 (sc), vehicle: steriod suspending solution): 94 % of control and 97 % of control
- T/C (dose: 100.0 mg/kg/injection, schedule: Q01DX010 (sc), vehicle: steriod suspending solution): 94 % of control and 100 % of control
